Experimental data taken from patent US20130267516A1, “SUBSTITUTED CYCLOPENTYL-AZINES AS CASR-ACTIVE COMPOUNDS” (LEO PHARMA A/S, priority 2010, published 2013).

Target: T1, human CaSR (Homo sapiens, UniProt P41180)
T1 construct: The ORF coding for the human CaSR (genebank: NM_000388)
T1 sequence (P41180 20-1078): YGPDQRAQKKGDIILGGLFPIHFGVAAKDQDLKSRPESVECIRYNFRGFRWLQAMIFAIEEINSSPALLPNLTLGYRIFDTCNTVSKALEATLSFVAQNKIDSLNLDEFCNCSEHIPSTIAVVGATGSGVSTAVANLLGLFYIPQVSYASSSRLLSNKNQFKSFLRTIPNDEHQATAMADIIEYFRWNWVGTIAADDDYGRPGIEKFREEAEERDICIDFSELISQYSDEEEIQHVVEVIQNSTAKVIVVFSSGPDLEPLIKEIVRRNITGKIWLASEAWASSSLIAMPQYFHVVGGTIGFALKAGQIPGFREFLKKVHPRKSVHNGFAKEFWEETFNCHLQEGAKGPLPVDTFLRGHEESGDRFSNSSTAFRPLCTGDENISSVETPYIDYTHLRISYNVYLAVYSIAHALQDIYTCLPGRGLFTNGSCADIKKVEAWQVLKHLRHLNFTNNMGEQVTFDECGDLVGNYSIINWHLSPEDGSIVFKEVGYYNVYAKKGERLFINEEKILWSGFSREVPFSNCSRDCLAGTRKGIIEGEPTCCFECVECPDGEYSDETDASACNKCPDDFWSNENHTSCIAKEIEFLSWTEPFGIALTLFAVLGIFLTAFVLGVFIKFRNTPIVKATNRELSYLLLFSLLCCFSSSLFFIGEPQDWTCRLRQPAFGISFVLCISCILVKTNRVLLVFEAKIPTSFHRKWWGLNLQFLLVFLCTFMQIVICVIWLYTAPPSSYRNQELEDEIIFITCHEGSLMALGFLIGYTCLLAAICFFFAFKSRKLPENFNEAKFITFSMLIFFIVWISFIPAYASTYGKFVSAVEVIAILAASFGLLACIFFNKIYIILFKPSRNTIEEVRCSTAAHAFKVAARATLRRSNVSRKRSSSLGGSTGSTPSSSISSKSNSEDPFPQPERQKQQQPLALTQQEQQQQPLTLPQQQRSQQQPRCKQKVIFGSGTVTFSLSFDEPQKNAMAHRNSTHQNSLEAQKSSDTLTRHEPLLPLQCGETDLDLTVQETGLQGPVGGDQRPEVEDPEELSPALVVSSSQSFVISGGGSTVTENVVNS
Test: Functional whole cell assay (modulation of human CaSR), IP1 accumulation in CHO-K1 cells
Type: cell-based
Details: CHO-K1 cells stably expressing human CaSR, final Ca2+ 1.9 mM, IP1 readout; concentration giving 50% of maximum agonistic response
Text: The assay investigates a compound's functional ability to act as a biological positive modulator on the human CaSR. Activation of the receptor expressed on CHO-K1 cells is detected through the G alpha q pathway, the activation of phospholipase C and the accumulation of intracellular inositol phosphate (IP) as described earlier [Sandrine Ferry, Bruno Chatel, Robert H. Dodd, Christine Lair, Danielle Gully, Jean-Pierre Maffrand, and Martial Ruat. Effects of Divalent Cations and of a Calcimimetic on Adrenocorticotropic Hormone Release in Pituitary Tumor Cells. Biochemical and biophysical research Communications 238, 866-873 (1997)]. The human CaSR is stably expressed on a CHO-K1 cell clone, stimulated with a basal level of calcium and challenged with the tested compound. The level of IP1 is determined using the IP-One Terbium htrf kit (Cisbio, France). CHO-K1 cells not transfected with the CaSR fail to elicit an IP1 response upon calcium and/or compound stimulation.
The ORF coding for the human CaSR (genebank: NM_000388) was acquired from Invitrogen Corp, USA and subsequently cloned into the mammalian expression vector pCDA3.1.
CHO-K1 cells were transfected using Lipofectamine according to manufacturer's protocol (400.000 cells/well were seeded in a 6-well plate and transfected after 24 hours using 2 μg DNA and 5 μl lipofectamine). After another 24 hours the cells were detached, seeded and subjected to 1 mg/ml of G-418. Following 7 days growth single clones were picked, the CaSR expression evaluated using the 5C10 antibody against CaSR, the clones with the highest expression were selected and tested for functional response. The preferred clone was cultured according to standard procedures described in ATCC (American Type Culture Collection) protocols for CHO-K1 with the addition of 500 μg/ml G-418.
On the assay day, cells were thawed, harvested and resuspended to 4*10^6 cells/ml in stimulation buffer (containing: Hepes 10 mM, MgCl2 0.5 mM, KCl 4.2 mM, NaCl 146 mM, glucose 5.5 mM, LiCl 50 mM, BSA 0.5% at pH 7.4). Ten μl cell solution was pipetted into wells of a white 384-well plate (Perkin Elmer Optiplate) containing 2 μl compound diluted in assay buffer (containing: Hepes 10 mM, MgCl2 0.5 mM, KCl 4.2 mM, NaCl 146 mM, glucose 5.5 mM, LiCl 50 mM, CaCl2 11.4 mM at pH 7.4), resulting in a final Ca^2+ concentration of 1.9 mM. After compound stimulation for 1 hour at 37° C. and 15 min at room temperature, 10 ul of IP-One assay detection reagent (prepared as described by the IP-One assay kit manufacturer) was added and the plate was incubated for another 1 hour at room temperature. Finally the plate was read using a Perkin Elmer EnVision, according to the protocol supplied by the IP-One assay kit manufacturer. The FRET ratio was calculated by dividing the 665 nm emission signal with that of the 615 nm.
The molar concentration of a compound that produces 50% of the maximum agonistic response (the […] value) is calculated according to the equation “General sigmoidal curve with Hill slope, a to d” (Equation 1). This model describes a sigmoidal curve with an adjustable baseline. The equation can be used to fit curves where response is either increasing or decreasing with respect to the independent variable, X.
y=(a−d)/(1+(x/c)̂b)+d Equation 1.
x=concentration of tested compound y=response (%) a=min response as compound concentration approaches 0 d=max response as concentration of tested compound is increasing c=IC50 for the curve b=Hill coefficient or curve slope

EC50 [nM] | Structure (SMILES)
< 200 | C[C@@H](N[C@H]1CC[C@@H](c2ccc(NCCNCCO)nc2)C1)c1cccc2ccccc12.O=CO.O=CO.O=CO [Compound 101, 2-[2-[[5-[(1R,3S)-3-[[(1R)-1-(1-Naphthyl)ethyl]amino]cyclopentyl]-2-pyridyl]amino]ethylamino]ethanol]
< 200 | COc1cc([C@@H](C)N[C@H]2CC[C@@H](c3ccc(NC4CCNCC4)nc3)C2)ccc1F [Compound 107, 5-[(1R,3S)-3-[[(1R)-1-(4-Fluoro-3-methoxy-phenyl)ethyl]amino]cyclopentyl]-N-(4-piperidyl)pyridin-2-amine]
< 200 | COc1cc([C@@H](C)N[C@H]2CC[C@@H](c3ccc(N4CCNC(=O)C4)nc3)C2)ccc1F [Compound 109, 4-[5-[(1R,3S)-3-[[(1R)-1-(4-Fluoro-3-methoxy-phenyl)ethyl]amino]cyclopentyl]-2-pyridyl]piperazin-2-one]
< 200 | COc1cc([C@@H](C)N[C@H]2CC[C@@H](c3ccc(NCCS(N)(=O)=O)nc3)C2)ccc1F [Compound 113, 2-[[5-[(1R,3S)-3-[[(1R)-1-(4-Fluoro-3-methoxyphenyl)ethyl]amino]cyclopentyl]-2-pyridyl]amino]ethanesulfonamide]
200 to 1000 | COc1cc([C@@H](C)N[C@H]2CC[C@@H](c3ccc(NCC(O)CO)nc3)C2)ccc1F (stereo partly drawn) [Compound 115, 3-[[5-[(1R,3S)-3-[[(1R)-1-(4-Fluoro-3-methoxyphenyl)ethyl]amino]cyclopentyl]-2-pyridyl]amino]propane-1,2-diol]
< 200 | COc1cc([C@@H](C)N[C@H]2CC[C@@H](c3ccc(N4CCN(C(C)=O)CC4)nc3)C2)ccc1F [Compound 116, 1-[4-[5-[(1R,3S)-3-[[(1R)-1-(4-Fluoro-3-methoxyphenyl)ethyl]amino]cyclopentyl]-2-pyridyl]piperazin-1-yl]ethanone]
< 200 | COc1cc([C@@H](C)N[C@H]2CC[C@@H](c3cnc(N4CCNC(=O)C4)nc3)C2)ccc1F [Compound 126, 4-[5-[(1R,3S)-3-[[(1R)-1-(4-Fluoro-3-methoxy-phenyl)ethyl]amino]cyclopentyl]pyrimidin-2-yl]piperazin-2-one]
200 to 1000 | COc1cc([C@@H](C)N[C@H]2CC[C@@H](c3cnc(N4CCN(C(C)=O)CC4)nc3)C2)ccc1F.O=CO [Compound 127, 1-[4-[5-[(1R,3S)-3-[[(1R)-1-(4-Fluoro-3-methoxy-phenyl)ethyl]amino]cyclopentyl]pyrimidin-2-yl]piperazin-1-yl]ethanone]
